{"source": "patent US20030191121A1", "about": "“Piperazine carboxamide intermediates of HIV protease inhibitors and processes for their preparation” (priority 2001, published 2003)", "origin": "cited, not measured here", "test_system": "HIV", "settings": "HIV-infected patients, in combination with nucleoside reverse transcriptase inhibitors", "data": [{"molecule": "CC(C)(C)NC(=O)[C@@H]1CN(Cc2cccnc2)CCN1C[C@@H](O)C[C@@H](Cc1ccccc1)C(=O)N[C@H]1c2ccccc2C[C@H]1O", "note": "[Indinavir, indinavir]", "values": [{"measurement": "reducing HIV viral loads and increasing CD4 cell counts", "value": "highly effective"}]}]}
